Tests used:
[1] = target: T1, Protein deacetylase HDAC6 (Homo sapiens, UniProt Q9UBN7); test: Inhibition of human HDAC6 by fluorimetric assay
T1 sequence (Q9UBN7 whole entry): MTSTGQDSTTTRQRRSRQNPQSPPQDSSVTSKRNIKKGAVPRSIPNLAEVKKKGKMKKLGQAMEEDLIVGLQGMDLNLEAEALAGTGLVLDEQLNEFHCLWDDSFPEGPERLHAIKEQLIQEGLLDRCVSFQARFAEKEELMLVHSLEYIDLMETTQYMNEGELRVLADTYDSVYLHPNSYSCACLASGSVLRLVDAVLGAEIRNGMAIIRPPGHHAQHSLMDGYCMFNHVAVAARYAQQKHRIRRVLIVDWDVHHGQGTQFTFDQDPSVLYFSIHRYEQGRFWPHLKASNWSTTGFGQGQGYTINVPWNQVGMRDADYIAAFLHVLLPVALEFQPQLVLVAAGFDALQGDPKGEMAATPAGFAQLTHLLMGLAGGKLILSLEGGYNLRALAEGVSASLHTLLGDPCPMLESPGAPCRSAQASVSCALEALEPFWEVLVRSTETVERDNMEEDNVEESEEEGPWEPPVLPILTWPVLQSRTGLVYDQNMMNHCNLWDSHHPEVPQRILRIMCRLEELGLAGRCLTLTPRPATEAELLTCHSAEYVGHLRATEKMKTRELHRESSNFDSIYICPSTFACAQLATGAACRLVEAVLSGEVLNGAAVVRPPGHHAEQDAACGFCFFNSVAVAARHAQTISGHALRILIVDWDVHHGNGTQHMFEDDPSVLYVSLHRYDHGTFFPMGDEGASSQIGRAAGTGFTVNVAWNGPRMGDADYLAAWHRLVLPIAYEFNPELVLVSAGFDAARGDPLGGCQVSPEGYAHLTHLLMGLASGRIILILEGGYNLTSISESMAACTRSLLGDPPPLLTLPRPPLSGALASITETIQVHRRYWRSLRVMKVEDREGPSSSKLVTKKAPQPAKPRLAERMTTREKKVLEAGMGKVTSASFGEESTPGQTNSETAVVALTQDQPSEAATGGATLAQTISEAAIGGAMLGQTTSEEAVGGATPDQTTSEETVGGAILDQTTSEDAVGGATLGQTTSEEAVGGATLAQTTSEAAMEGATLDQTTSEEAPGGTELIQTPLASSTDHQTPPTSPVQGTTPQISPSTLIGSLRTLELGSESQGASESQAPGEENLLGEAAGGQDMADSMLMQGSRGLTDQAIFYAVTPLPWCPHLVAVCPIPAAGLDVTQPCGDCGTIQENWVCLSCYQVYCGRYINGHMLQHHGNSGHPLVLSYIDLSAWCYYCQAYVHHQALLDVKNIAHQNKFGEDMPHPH

[2] = target: Histone deacetylase 3 (Homo sapiens, UniProt O15379)
Sequence of Histone deacetylase 3 (O15379 whole entry): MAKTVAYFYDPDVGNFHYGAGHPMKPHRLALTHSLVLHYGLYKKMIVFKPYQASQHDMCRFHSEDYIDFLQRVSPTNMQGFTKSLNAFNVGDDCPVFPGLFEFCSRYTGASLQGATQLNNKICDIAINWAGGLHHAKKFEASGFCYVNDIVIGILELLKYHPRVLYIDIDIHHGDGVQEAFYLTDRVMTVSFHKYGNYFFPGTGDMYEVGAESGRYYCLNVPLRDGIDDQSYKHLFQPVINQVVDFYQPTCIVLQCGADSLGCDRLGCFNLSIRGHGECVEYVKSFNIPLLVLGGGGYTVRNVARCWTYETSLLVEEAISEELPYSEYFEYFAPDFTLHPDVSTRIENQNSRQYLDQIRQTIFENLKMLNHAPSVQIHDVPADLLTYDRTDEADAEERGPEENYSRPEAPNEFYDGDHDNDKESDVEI

[3] = target: Histone deacetylase 2 (Homo sapiens, UniProt Q92769)
Sequence of Histone deacetylase 2 (Q92769 whole entry): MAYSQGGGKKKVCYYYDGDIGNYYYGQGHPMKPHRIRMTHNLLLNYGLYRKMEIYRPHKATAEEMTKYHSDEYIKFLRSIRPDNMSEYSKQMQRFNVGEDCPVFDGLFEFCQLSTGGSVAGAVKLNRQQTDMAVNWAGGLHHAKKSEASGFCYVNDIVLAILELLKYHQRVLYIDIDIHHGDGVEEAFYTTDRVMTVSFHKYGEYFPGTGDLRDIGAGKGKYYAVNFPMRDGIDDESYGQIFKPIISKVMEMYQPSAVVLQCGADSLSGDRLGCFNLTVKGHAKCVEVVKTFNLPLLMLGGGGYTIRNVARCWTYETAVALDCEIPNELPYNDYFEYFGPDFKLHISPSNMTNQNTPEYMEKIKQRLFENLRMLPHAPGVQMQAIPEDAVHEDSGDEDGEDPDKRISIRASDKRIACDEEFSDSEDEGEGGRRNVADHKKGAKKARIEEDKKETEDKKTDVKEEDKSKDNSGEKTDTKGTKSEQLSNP

[4] = target: Histone deacetylase 5 (Homo sapiens, UniProt Q9UQL6); test: Inhibition of human HDAC5 by fluorimetric assay
Sequence of Histone deacetylase 5 (Q9UQL6 whole entry): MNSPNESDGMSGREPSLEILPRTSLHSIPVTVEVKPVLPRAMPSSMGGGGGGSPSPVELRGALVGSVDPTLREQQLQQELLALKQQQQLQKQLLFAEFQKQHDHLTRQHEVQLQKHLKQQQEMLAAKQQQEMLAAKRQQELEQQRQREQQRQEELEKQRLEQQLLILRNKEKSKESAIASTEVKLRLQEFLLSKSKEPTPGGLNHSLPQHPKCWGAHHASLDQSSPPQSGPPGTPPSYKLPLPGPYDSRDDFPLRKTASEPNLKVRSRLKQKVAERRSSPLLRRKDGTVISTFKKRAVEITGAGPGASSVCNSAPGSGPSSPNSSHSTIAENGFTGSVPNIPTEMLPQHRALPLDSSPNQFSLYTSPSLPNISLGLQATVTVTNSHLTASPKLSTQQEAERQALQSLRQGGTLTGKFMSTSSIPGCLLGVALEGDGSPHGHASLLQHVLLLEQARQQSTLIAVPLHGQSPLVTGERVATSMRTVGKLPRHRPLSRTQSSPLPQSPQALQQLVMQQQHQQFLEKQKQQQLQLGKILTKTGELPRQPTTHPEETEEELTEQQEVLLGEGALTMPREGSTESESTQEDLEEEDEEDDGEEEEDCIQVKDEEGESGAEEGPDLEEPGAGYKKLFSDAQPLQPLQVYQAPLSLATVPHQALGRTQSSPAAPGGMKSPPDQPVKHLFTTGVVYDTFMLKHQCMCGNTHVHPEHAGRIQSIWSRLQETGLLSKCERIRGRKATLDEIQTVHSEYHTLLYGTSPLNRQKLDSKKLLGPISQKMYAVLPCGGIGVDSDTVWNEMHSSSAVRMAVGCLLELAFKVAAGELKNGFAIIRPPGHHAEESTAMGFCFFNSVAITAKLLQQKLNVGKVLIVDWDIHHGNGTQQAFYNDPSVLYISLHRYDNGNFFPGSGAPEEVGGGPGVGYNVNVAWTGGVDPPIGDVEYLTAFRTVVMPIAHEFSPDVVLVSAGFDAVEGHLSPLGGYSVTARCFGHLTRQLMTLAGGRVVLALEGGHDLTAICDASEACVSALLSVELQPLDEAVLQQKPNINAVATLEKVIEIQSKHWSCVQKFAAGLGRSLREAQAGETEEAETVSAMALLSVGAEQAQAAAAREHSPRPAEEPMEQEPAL

[5] = test system: HCT-116; test: cells; format: functional, cell-based; conditions: Homo sapiens, HCT-116, 48 h
[6] = target: T2, Polyamine deacetylase HDAC10 (Homo sapiens, UniProt Q969S8); test: Inhibition of human HDAC10 by fluorimetric assay
T2 sequence (Q969S8 whole entry): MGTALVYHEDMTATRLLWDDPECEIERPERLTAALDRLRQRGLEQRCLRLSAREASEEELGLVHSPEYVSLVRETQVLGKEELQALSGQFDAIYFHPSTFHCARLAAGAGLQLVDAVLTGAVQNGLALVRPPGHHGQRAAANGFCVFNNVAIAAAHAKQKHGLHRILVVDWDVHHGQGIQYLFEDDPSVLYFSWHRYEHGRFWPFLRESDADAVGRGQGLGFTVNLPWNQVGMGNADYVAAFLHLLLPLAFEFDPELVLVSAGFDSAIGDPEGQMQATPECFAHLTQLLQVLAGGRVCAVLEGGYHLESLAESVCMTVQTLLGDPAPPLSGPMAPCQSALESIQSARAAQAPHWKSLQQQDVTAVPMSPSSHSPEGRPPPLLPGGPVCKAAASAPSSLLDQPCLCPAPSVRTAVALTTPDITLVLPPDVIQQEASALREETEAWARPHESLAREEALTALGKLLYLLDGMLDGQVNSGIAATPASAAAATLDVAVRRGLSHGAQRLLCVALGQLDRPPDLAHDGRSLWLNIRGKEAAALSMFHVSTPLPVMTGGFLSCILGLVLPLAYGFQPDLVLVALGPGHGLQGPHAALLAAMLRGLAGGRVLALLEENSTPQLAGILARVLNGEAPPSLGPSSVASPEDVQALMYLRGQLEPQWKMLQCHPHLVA

[7] = target: Histone deacetylase 1 (Homo sapiens, UniProt Q13547); test: Inhibition of human HDAC1 by fluorimetric assay
Sequence of Histone deacetylase 1 (Q13547 whole entry): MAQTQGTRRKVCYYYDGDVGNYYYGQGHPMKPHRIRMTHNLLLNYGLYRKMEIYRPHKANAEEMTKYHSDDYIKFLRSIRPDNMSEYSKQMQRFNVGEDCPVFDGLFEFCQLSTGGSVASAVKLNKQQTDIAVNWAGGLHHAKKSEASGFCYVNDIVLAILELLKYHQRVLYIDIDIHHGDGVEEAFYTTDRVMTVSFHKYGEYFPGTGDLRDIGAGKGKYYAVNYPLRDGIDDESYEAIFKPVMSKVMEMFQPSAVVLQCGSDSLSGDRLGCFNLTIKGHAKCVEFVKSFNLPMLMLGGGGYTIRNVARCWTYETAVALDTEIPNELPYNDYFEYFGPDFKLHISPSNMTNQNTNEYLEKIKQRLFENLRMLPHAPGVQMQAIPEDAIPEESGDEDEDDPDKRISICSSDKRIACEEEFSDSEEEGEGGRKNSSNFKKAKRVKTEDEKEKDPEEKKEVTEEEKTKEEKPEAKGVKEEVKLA

[8] = target: T3, Histone deacetylase 8 (Homo sapiens, UniProt Q9BY41); test: Inhibition of human HDAC8 by fluorimetric assay
T3 sequence (Q9BY41 whole entry): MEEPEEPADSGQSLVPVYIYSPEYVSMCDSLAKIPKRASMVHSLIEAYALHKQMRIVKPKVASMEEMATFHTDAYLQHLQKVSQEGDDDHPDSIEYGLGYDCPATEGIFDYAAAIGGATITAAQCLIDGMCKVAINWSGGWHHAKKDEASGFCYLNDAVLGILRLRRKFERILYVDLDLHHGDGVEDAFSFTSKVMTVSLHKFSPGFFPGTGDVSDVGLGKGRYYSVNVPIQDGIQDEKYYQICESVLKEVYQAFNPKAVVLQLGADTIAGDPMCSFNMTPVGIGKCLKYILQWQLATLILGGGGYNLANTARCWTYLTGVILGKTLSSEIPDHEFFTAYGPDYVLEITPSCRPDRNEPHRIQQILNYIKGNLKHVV

[9] = target: T4, Histone deacetylase 11 (Homo sapiens, UniProt Q96DB2); test: Inhibition of human HDAC11 by fluorimetric assay
T4 sequence (Q96DB2 whole entry): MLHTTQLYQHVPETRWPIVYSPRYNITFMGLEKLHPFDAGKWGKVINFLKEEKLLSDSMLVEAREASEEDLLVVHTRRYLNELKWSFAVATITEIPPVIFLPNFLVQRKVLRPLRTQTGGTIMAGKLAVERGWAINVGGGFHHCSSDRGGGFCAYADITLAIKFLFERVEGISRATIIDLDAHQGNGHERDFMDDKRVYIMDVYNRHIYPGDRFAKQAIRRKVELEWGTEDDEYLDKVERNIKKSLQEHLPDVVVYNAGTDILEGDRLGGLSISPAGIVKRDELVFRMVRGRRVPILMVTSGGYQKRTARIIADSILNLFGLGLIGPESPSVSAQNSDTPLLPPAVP

[10] = target: Histone deacetylase 4 (Homo sapiens, UniProt P56524); test: Inhibition of human HDAC4 by fluorimetric assay
Sequence of Histone deacetylase 4 (P56524 whole entry): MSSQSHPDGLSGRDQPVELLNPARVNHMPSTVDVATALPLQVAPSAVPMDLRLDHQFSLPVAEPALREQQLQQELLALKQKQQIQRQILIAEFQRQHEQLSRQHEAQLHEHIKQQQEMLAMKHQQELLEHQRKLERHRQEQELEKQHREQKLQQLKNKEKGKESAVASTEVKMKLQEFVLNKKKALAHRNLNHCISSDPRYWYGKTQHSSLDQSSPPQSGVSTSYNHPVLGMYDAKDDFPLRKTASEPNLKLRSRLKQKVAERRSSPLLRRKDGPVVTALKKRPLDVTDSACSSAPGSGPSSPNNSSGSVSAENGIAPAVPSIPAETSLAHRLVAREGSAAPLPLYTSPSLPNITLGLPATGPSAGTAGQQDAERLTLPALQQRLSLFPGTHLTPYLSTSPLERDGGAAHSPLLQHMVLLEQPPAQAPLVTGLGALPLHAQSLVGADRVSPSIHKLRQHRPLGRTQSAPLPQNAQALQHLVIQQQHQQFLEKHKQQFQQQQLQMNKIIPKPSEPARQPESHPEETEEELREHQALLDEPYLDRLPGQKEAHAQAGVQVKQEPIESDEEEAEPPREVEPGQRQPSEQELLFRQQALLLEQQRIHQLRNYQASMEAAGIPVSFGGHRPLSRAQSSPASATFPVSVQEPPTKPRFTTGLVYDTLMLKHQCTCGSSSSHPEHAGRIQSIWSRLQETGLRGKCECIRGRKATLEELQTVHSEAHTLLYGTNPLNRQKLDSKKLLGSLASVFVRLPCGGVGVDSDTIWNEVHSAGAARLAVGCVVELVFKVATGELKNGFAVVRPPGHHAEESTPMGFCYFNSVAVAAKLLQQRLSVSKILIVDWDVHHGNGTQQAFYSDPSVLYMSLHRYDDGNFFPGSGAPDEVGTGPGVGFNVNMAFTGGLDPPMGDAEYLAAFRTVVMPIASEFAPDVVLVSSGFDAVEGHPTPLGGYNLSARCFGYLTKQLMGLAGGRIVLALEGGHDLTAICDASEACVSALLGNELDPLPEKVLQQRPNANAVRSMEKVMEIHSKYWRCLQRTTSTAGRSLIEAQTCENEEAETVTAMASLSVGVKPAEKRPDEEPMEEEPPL

[11] = target: T5, Histone deacetylase 7 (Homo sapiens, UniProt Q8WUI4); test: Inhibition of human HDAC7 by fluorimetric assay
T5 sequence (Q8WUI4 whole entry): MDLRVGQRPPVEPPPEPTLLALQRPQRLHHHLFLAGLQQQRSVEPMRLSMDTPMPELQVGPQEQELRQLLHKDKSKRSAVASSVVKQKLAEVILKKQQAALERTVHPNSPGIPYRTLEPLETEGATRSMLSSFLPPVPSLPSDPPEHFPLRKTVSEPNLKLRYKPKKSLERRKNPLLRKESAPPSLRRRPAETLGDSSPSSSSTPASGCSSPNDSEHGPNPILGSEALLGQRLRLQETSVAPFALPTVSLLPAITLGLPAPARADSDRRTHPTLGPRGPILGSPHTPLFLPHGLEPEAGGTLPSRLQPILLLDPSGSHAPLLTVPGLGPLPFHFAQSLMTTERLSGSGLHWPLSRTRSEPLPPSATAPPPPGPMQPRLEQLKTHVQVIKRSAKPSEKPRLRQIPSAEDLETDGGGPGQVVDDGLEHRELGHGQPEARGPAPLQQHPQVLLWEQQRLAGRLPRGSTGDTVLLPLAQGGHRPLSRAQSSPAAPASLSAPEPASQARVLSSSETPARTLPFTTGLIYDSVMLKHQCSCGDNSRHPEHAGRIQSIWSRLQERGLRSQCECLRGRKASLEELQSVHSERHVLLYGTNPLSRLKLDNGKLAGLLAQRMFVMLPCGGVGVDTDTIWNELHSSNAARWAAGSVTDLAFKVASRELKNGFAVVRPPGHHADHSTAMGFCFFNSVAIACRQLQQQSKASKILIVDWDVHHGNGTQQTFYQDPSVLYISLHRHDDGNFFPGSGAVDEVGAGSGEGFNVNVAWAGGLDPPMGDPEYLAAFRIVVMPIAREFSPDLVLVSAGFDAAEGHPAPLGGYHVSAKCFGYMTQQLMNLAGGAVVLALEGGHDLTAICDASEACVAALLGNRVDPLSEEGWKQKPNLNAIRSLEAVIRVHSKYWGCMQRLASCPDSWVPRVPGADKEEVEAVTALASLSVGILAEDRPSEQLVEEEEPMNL

[12] = test system: NCI-H460; test: cells; format: functional, cell-based; conditions: Homo sapiens, NCI-H460, 48 h
[13] = target: Histone deacetylase 9 (Homo sapiens, UniProt Q9UKV0); test: Inhibition of human HDAC9 by fluorimetric assay
Sequence of Histone deacetylase 9 (Q9UKV0 whole entry): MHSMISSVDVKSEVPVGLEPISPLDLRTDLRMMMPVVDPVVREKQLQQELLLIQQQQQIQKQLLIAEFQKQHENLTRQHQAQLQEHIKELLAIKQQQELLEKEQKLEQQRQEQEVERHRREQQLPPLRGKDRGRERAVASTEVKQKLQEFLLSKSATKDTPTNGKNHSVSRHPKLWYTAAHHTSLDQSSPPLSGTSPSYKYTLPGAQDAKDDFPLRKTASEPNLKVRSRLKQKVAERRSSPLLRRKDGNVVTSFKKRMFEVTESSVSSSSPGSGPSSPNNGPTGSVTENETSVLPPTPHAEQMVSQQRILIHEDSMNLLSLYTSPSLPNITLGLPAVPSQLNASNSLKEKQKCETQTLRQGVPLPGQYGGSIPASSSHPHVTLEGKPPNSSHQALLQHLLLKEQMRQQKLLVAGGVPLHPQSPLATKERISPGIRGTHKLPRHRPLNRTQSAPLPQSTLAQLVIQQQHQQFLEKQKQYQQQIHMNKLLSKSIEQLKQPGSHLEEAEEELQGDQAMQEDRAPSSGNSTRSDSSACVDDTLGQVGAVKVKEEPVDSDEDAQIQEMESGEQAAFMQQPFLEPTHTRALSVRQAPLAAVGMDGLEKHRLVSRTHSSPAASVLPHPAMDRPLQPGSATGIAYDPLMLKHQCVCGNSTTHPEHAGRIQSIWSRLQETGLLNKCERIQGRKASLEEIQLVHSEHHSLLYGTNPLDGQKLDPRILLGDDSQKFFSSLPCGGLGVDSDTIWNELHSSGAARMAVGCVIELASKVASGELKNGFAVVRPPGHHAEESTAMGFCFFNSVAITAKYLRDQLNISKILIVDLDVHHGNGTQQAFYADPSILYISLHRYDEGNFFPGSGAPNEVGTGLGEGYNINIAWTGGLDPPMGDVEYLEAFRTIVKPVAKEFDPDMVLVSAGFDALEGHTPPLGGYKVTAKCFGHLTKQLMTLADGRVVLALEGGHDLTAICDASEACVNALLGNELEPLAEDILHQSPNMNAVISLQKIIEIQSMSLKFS

Compound | IC50 [1] [nM] | IC50 [2] [nM] | IC50 [3] [nM] | IC50 [4] [nM] | IC50 [5] [nM] | IC50 [6] [nM] | IC50 [7] [nM] | IC50 [8] [nM] | IC50 [9] [nM] | IC50 [10] [nM] | IC50 [11] [nM] | IC50 [12] [nM] | IC50 [13] [nM]
COc1cc2cc(c1)COc1ccccc1NC(=O)[C@@H](CCCCCC(=O)NO)OC/C=C\2 | 10.2 | 89 | 382 | 155 | 640 | 152 | 78.1 | 206 | 97.1 | 284 | 180 | 820 | 302
CC(/C=C/C(=O)NO)=C\[C@@H](C)C(=O)c1ccc(N(C)C)cc1 [TRICHOSTATIN] | – | – | – | – | 43 | – | – | – | – | – | – | 100 | –
O=C(CCCCCC1OCCCCCCCOc2ccccc2NC1=O)NO (racemic) | 9.38 | 240 | 1540 | 695 | 350 | 958 | 439 | 286 | 546 | 1250 | – | 620 | 1040
COc1cc2cc(c1)COc1ccccc1NC(=O)C(CCCCCC(=O)NO)OC/C=C\2 (racemic) | 1.97 | 39.6 | 207 | 55.4 | 450 | 70.7 | 30.7 | 119 | 57.7 | 159 | 72.6 | 880 | 99.6
COc1cc2cc(c1)COc1ccccc1NC(=O)[C@H](CCCCCC(=O)NO)OC/C=C\2 | 0.84 | 55.7 | 158 | 62.2 | 690 | 62.5 | 31.7 | 198 | 22.9 | 79.4 | 27.8 | 1050 | 60.6
COc1cc2cc(c1)COc1ccccc1NC(=O)[C@H](CCCCCC(=O)NO)OCCC2 | 3.43 | 93.6 | 268 | 109 | 520 | 190 | 72.2 | 136 | 103 | 118 | – | 740 | 123
COc1cc2cc(c1)COc1ccccc1NC(=O)[C@@H](CCCCCC(=O)NO)OCCC2 | 3.92 | 94.5 | 425 | 150 | 850 | 200 | 102 | 90.7 | 174 | 454 | – | 680 | 322
O=C(/C=C/c1ccc(CN(CCO)CCc2c[nH]c3ccccc23)cc1)NO [DACINOSTAT] | – | – | – | – | 18 | – | – | – | – | – | – | 70 | –
COc1cc2cc(c1)COc1ccccc1NC(=O)C(CCCCCC(=O)NO)OCCC2 (racemic) | 8.44 | 246 | 793 | 341 | 690 | 320 | 204 | 444 | 226 | 447 | – | 870 | 336
O=C(CCCCCC1OCCCCCOc2ccccc2NC1=O)NO (racemic) | 15.6 | 369 | 1930 | 1340 | 690 | 1530 | 949 | 643 | 1210 | 2580 | 1720 | 2000 | 1900
COc1ccc(COC(CCCCCC(=O)NO)C(=O)Nc2ccccc2)cc1 (racemic) | 20.1 | 131 | 254 | 134 | – | 179 | 53.4 | 331 | 197 | 648 | – | – | 247
O=C(CCCCCC1OCCCCCCOc2ccccc2NC1=O)NO (racemic) | 10.1 | 176 | 1570 | 878 | 580 | 683 | 560 | 1100 | 564 | 1200 | – | 1000 | 687

From ChEMBL document CHEMBL1629537, “Non-natural macrocyclic inhibitors of histone deacetylases: design, synthesis, and activity” (J Med Chem, 2010)
